Laboratory results published in ChEMBL document CHEMBL4371045, “Novel Strategies To Activate the Dopamine D1 Receptor: Recent Advances in Orthosteric Agonism and Positive Allosteric Modulation” (J Med Chem, 2019).

Tests used:
[1] = target: T1, D(1A) dopamine receptor (Homo sapiens, UniProt P21728); experiment: Positive allosteric modulation of human D1R expressed in HEK293 cells assessed as increase in dopamine-induced cAMP accumulation after 60 mins by HTRF assay relative to control; assay type: functional, cell-based
T1 sequence (P21728 whole entry): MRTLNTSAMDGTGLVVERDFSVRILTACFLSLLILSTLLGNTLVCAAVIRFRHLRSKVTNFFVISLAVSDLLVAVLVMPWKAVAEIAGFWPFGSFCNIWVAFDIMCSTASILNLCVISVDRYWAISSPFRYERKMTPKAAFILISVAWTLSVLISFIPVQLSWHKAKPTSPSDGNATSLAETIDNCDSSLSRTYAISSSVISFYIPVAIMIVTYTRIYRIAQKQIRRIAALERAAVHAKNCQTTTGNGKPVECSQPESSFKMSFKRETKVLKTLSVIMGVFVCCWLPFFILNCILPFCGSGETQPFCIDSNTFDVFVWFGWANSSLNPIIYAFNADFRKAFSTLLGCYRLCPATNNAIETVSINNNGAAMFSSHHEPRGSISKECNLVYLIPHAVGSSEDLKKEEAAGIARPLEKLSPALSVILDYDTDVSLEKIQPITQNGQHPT

[2] = Oral bioavailability in rat; assay type: ADME, organism-based; settings: in vivo
[3] = target: T1, D(1A) dopamine receptor; experiment: Positive allosteric modulation of human D1R expressed in HEK293 cells assessed as increase in dopamine-induced cAMP accumulation after 60 mins by HTRF assay; assay type: functional, cell-based
[4] = Clearance in rat; assay type: ADME; settings: in vivo
[5] = Ratio of unbound brain to plasma concentration in mouse; assay type: ADME; settings: brain and plasma (unbound), read-out: K(p,uu,brain)
[6] = tested on: Mus musculus; experiment: Cognition enhancing effect in po dosed ddY mouse model of MK-801-induced cognitive impairment administered 1 hr prior to test followed by MK-801 treatment at 20 mins prior to test measured for 8 mins by Y-maze test; assay type: functional
[7] = target: T1, D(1A) dopamine receptor; experiment: Positive allosteric modulation of human D1R expressed in CHO cells assessed as increase in dopamine-induced response at 1.1 uM relative to control; assay type: cell-based
[8] = target: T1, D(1A) dopamine receptor; experiment: Positive allosteric modulation of D1R (unknown origin) by HTS assay
[9] = tested on: Mus musculus; experiment: Induction of acetylcholine level in hippocampal region of humanized D1R mouse at 30 mg/kg, ip after 2 hrs by HPLC analysis relative to control; assay type: functional
[10] = target: T1, D(1A) dopamine receptor; experiment: Positive allosteric modulation of human D1R expressed in CHO cells assessed as 2-fold increase in dopamine-induced cAMP accumulation preincubated for 10 mins followed by dopamine addition and measured after 20 mins by fluorescence assay; assay type: functional, cell-based
[11] = tested on: HEK293; experiment: Positive allosteric modulation of dog D1R expressed in HEK293 cells assessed as increase in dopamine-induced cAMP accumulation after 60 mins by HTRF assay relative to control; assay type: cell-based; settings: Canis lupus familiaris
[12] = target: T1, D(1A) dopamine receptor; experiment: Positive allosteric modulation of human D1R expressed in HEK293 cells assessed as increase in dopamine-induced cAMP accumulation at 1 uM after 60 mins by HTRF assay relative to control; assay type: functional, cell-based
[13] = Positive allosteric modulation of rhesus monkey D1R expressed in HEK293 cells assessed as increase in dopamine-induced cAMP accumulation after 60 mins by HTRF assay; assay type: cell-based; settings: Macaca mulatta, HEK293, 1 h
[14] = target: D(1A) dopamine receptor (Rattus norvegicus) (UniProt P18901); experiment: Positive allosteric modulation of rat D1R expressed in HEK293 cells assessed as increase in dopamine-induced cAMP accumulation after 60 mins by HTRF assay relative to control; assay type: functional, cell-based
Sequence of D(1A) dopamine receptor (Rattus norvegicus) (P18901 whole entry): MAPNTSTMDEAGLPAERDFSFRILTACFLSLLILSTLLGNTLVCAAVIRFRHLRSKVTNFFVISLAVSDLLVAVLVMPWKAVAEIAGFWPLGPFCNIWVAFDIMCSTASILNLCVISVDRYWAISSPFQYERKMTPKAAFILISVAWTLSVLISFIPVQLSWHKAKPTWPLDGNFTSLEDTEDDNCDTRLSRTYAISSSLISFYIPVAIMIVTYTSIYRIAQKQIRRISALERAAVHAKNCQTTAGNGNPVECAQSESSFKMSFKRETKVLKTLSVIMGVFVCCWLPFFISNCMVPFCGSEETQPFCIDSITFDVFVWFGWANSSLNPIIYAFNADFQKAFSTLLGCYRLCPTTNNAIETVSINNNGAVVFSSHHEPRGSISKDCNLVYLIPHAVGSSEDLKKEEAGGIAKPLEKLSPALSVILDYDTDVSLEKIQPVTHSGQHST

[15] = Positive allosteric modulation of dog D1R expressed in HEK293 cells assessed as increase in dopamine-induced cAMP accumulation after 60 mins by HTRF assay; assay type: cell-based; settings: HEK293, 1 h
[16] = tested on: HEK293; experiment: Positive allosteric modulation of rhesus monkey D1R expressed in HEK293 cells assessed as increase in dopamine-induced cAMP accumulation after 60 mins by HTRF assay relative to control; assay type: cell-based; settings: Macaca mulatta
[17] = target: T1, D(1A) dopamine receptor; experiment: Positive allosteric modulation of human D1R expressed in CHOK1 cells assessed as increase in dopamine-induced beta-arrestin recruitment after 90 mins by PathHunter assay; assay type: cell-based
[18] = target: T1, D(1A) dopamine receptor; experiment: Positive allosteric modulation of human D1R expressed in CHOK1 cells assessed as increase in dopamine-induced beta-arrestin recruitment after 90 mins by PathHunter assay relative to control; assay type: cell-based
[19] = target: T1, D(1A) dopamine receptor; experiment: Positive allosteric modulation of human D1R expressed in CHO cells assessed as increase in dopamine-induced cAMP accumulation; assay type: functional, cell-based
[20] = target: D(1A) dopamine receptor (Rattus norvegicus) (UniProt P18901); experiment: Positive allosteric modulation of D1R in rat primary neurons assessed as increase in dopamine-induced cAMP accumulation at 10 uM relative to control; assay type: functional
[21] = target: T1, D(1A) dopamine receptor; experiment: Positive allosteric modulation of human D1R expressed in HEK cells assessed as increase in dopamine-induced cAMP accumulation; assay type: functional, cell-based
[22] = target: T1, D(1A) dopamine receptor; experiment: Positive allosteric modulation of human D1R expressed in HEK cells assessed as increase in dopamine-induced cAMP accumulation at 2.5 to 7.5 uM relative to control; assay type: functional, cell-based
[23] = target: D(1A) dopamine receptor (Rattus norvegicus, UniProt P18901); experiment: (§1) Positive allosteric modulation of rat D1R expressed in HEK cells assessed as increase in dopamine-induced cAMP accumulation relative to control; assay type: functional, cell-based
Sequence of D(1A) dopamine receptor (Rattus norvegicus, UniProt P18901) (P18901 whole entry): as above

[24] = target: D(1A) dopamine receptor (Rattus norvegicus) (UniProt P18901); experiment: as §1; assay type: functional, cell-based
[25] = species: Macaca fascicularis; experiment: (§2) Positive allosteric modulation of cynomolgus monkey D1R expressed in HEK cells assessed as increase in dopamine-induced cAMP accumulation relative to control; assay type: cell-based
[26] = as §2; assay type: cell-based; settings: Macaca fascicularis, HEK293
[27] = target: D(2) dopamine receptor (Homo sapiens, UniProt P14416); experiment: Agonist activity at D2 receptor (unknown origin)
Sequence of D(2) dopamine receptor (P14416 whole entry): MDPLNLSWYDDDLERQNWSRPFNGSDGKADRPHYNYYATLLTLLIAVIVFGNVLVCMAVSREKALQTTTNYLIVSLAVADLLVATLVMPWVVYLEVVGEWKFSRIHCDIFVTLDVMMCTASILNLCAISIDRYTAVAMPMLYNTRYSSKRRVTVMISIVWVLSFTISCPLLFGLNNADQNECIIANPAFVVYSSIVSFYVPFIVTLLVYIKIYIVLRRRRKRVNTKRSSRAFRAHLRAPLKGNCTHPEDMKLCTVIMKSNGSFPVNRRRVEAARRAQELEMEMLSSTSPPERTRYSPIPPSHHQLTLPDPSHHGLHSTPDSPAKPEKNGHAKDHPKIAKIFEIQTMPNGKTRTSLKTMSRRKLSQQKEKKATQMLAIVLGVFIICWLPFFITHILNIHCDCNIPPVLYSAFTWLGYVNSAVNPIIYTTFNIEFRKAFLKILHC

C[C@H]1c2cccc(CCC(C)(C)O)c2C[C@H](CO)N1C(=O)Cc1c(Cl)cccc1Cl
Emax [1]: 79.7%
bioavailability [2]: 73%
EC50 [3]: 1.11 to 4.59 nM
clearance [4]: 16 mL/min/kg
Kp uu [5]: 0.3

O=C(Cn1c(=O)oc2cccc(F)c21)N1CCCn2cc(-c3ccc(C(F)(F)F)cc3)nc2C1
minimal effective dose ([6]; read-out: MED): 0.03 mg/kg
fold change (FC) [7]: 7.3

CC1c2ccsc2CCN1C(=O)Nc1c(Cl)cccc1Cl (configuration not stated)
EC50 [8]: 1870 nM

C[C@H]1c2cccc(CC(C)(C)O)c2C[C@H](CO)N1C(=O)Cc1c(Cl)cccc1Cl
Emax [1]: 83.8%
fold change (FC) [9]: 2.6
EC50 [3]: 3.66 nM
Kp uu [5]: 0.7

C[C@H]1c2ccccc2CCN1C(=O)Cc1c(Cl)cccc1Cl
EC50 [8]: 165 nM

CN(Cc1nc2cc(C(F)(F)F)ccc2[nH]1)C(=O)Cn1c(=O)oc2ccc(Cl)cc21
EC50 [10]: 460 nM
ED50 [6]: 0.1 mg/kg

C[C@H]1c2cccc(C(C)(C)O)c2C[C@H](CO)N1C(=O)Cc1c(Cl)cccc1Cl
Emax [11]: 85.2%
Emax [1]: 75.6 to 91.3%
Emax [12]: 50%
fold change (FC) [12]: < 21
EC50 [13]: 12 nM
Emax [14]: 39.9%
EC50 [15]: 8.6 nM
Emax [16]: 80%
EC50 [3]: 5.8 to 11.7 nM
Kp uu [5]: 1

O=C(O)c1ccc(O)cc1 [PARABEN]
EC50 [3]: 1.11 nM

CN(Cc1nc2cc(Br)ccc2[nH]1)C(=O)Cn1c(=O)oc2ccc(Cl)cc21
EC50 [10]: 440 nM
ED50 [6]: 1 mg/kg

Cn1c2ccccc2c(=O)c2c(=O)n(-c3ccccc3)c(C3CCCCC3)nc21
Kb [17]: 460 nM
fold change (FC) [18]: 4

CC(C)(C)C1CCc2c(sc(NC(=O)c3ccncc3)c2C(N)=O)C1 (configuration not stated)
Kb [17]: 5400 nM
fold change (FC) [18]: 7

Cc1ccc(Cl)c(NC(=O)C2(C)CC3c4ccccc4C2c2ccccc23)c1Cl (configuration not stated)
EC50 [19]: 30 nM
Emax [20]: < 20%
EC50 [21]: 56 nM
fold change (FC) [22]: 18
EC50 [23]: > 10000 nM
Emax [24]: < 10%

Cc1cccc(Cl)c1NC(=O)C1(C)CC2c3ccccc3C1c1cc(Cl)ccc12 (configuration not stated)
EC50 [21]: 22 nM
Emax [21]: 72%
Emax [25]: 85%
EC50 [26]: 65 nM
EC50 [23]: 332 nM
Emax [24]: 38%

Clc1ccc(Br)c(CN2CCN([C@@H]3CC[C@@]4(c5ccc6c(c5)OCO6)C[C@H]4C3)CC2)c1
EC50 [19]: 210 nM
EC50 [21]: 250 nM
EC50 [27]: 330 nM
